# Where two headings read alike, the source gives them in different places.
# Assays:
# [1] = test system: IL-23 stimulated Kit225 T cells (STAT-dependent luciferase reporter); assay: Kit225 T cell assay, IL-23-stimulated STAT-dependent luciferase reporter; format: cell-based, human
# Procedure: (§1) Kit225 T cells with a stably-integrated STAT-dependent luciferase reporter were plated in RPMI (Gibco) containing 10% heat-inactivated FBS (Gibco) and 100 U/mL PenStrep (Gibco). The cells were then stimulated with either 20 ng/mL human recombinant IL-23 or 200 U/mL human recombinant IFNα (PBL InterferonSource) for 5-6 hours. Luciferase expression was measured using the STEADY-GLO® Luciferase Assay System (Promega) according to the manufacturer's instructions. Inhibition data were calculated by comparison to no inhibitor control wells for 0% inhibition and non-stimulated control wells for 100% inhibition.
# [2] = test system: IFNα stimulated Kit225 T cells (STAT-dependent luciferase reporter); assay: Kit225 T cell assay, IFNα-stimulated STAT-dependent luciferase reporter; format: cell-based, human
# Procedure: as §1
# [3] = 20 ng/mL human recombinant IL-23, 5-6 hours, read-out: IL-23 Kit225 Reporter (IC50)
# [4] = 200 U/mL human recombinant IFNα, 5-6 hours, read-out: IFNα Kit225 Reporter (IC50)
# [5] = KIT225, 20 ng/mL human recombinant IL-23, 5-6 hours, read-out: IL-23 Kit225 Reporter (IC50)
# [6] = KIT225, 200 U/mL human recombinant IFNα, 5-6 hours, read-out: IFNα Kit225 Reporter (IC50)
SMILES,"IC50 [1, 3] [nM]","IC50 [2, 4] [nM]",also measured
CNC(=O)c1nnc(Nc2cc(C)n(C)n2)cc1Nc1cccc(-c2nnc(C)o2)c1OC [Example 152],130,30,–
CNC(=O)c1nnc(Nc2ccccn2)cc1Nc1cccc(-c2ccncn2)c1OC [Example 96],40,7.38,–
CNC(=O)c1nnc(NC(=O)C2CC2)cc1Nc1cccc(-c2nccs2)c1OC [Example 105],180,140,–
CNC(=O)c1nnc(Nc2ccnc(C)n2)cc1Nc1ccccc1S(C)(=O)=O [Example 39],340,130,–
CNC(=O)c1nnc(Nc2ccc(F)cn2)cc1Nc1ccccc1S(C)(=O)=O [Example 3],100,60,–
[2H]C([2H])([2H])NC(=O)c1nnc(NC(=O)C2CC2)cc1Nc1cccc(-c2nc[nH]n2)c1OC [Example 173],–,–,"IC50 ([1]; Homo sapiens, KIT225, read-out: IL-23 Kit225 Reporter (IC50, nM)): 120 nM; IC50 ([2]; Homo sapiens, KIT225, read-out: IFNα Kit225 Reporter (IC50, nM)): 20 nM"
CNC(=O)c1nnc(Nc2ccc(F)cn2)cc1Nc1cccc(-c2nccc(C)n2)c1OC [Example 83],50,40,–
CNC(=O)c1nnc(Nc2ccnc(C)n2)cc1Nc1cccc(-c2ncccn2)c1OC [Example 158],10,20,–
CNC(=O)c1nnc(Nc2cc(OC)ccn2)cc1Nc1ccccc1S(C)(=O)=O [Example 38],170,100,–
CNC(=O)c1nnc(Nc2cccnn2)cc1Nc1cccc(-c2ncccn2)c1OC [Example 123],5.9,6.81,–
CNC(=O)c1nnc(Nc2cc(C(C)(C)O)ccn2)cc1Nc1cccc(-c2ncn(C)n2)c1OC [Example 120],60,10,–
CNC(=O)c1nnc(Nc2cc(C)c(F)cn2)cc1Nc1ccccc1S(C)(=O)=O [Example 15],40,50,–
CNC(=O)c1nnc(Nc2ccc(N3CCOCC3)cn2)cc1Nc1ccccc1S(C)(=O)=O [Example 29],140,80,–
CNC(=O)c1nnc(Nc2ccccn2)cc1Nc1cccc(-c2nnc(C)o2)c1SC [Example 203],310,110,–
COc1c(Nc2cc(NC(=O)C3CC3)nnc2C(N)=O)cccc1-c1ncn(C)n1 [Example 201],20,4.13,–
CNC(=O)c1cccc(Nc2cc(Nc3ccccn3)nnc2C(=O)NC)c1OC [Example 169],40,30,–
CNC(=O)c1nnc(NC(=O)C2CC2)cc1Nc1cccc(-c2cn(C)cn2)c1OC [Example 159],110,80,–
CNC(=O)c1nnc(NC(=O)C2CC2)cc1Nc1cccc(-c2nnnn2C)c1OC [Example 143],40,140,–
CNC(=O)c1nnc(Nc2ccccn2)cc1Nc1cccc(C(=O)NCC(F)(F)F)c1OC [Example 171],50,130,–
CNC(=O)c1nnc(NC(=O)C2CC2)cc1Nc1cccc(-c2ncc(F)cn2)c1OC [Example 116],20,30,–
CNC(=O)c1nnc(NC(=O)C2CC2)cc1Nc1cccc(-c2ncccn2)c1OC [Example 70],20,–,–
CS(=O)(=O)c1ccccc1Nc1cc(Nc2ccccn2)nnc1C(N)=O [Example 27],10,20,–

SMILES,"IC50 [1, 3] [nM]","IC50 [2, 4] [nM]",also measured
CNC(=O)c1nnc(Nc2cc(C)n(C)n2)cc1Nc1ccccc1S(C)(=O)=O [Example 24],60,50,–
CNC(=O)c1nnc(NC(=O)C2CC2)cc1Nc1cccc(-c2cnn(C)n2)c1OC [Example 136],20,6.04,–
CNC(=O)c1nnc(Nc2cc(C)nc(C)n2)cc1Nc1cccc(-c2c[nH]nn2)c1OC [Example 191],10,8.63,–
CNC(=O)c1nnc(Nc2ccnc(C)n2)cc1Nc1cccc(-c2ncn(C)n2)c1OC [Example 103],20,6.06,–
CNC(=O)c1nnc(Nc2ccc(OC)cn2)cc1Nc1ccccc1S(C)(=O)=O [Example 22],160,100,–
CNC(=O)c1nnc(Nc2cc(C(C)O)ccn2)cc1Nc1cccc(-c2cscn2)c1OC (stereo not drawn) [Example 157],230,150,–
CNC(=O)c1nnc(Nc2cnc(C)cn2)cc1Nc1cccc(-c2ncccn2)c1OC [Example 113],30,4.41,–
CNC(=O)c1nnc(Nc2cc(C)ncn2)cc1Nc1ccccc1S(C)(=O)=O [Example 8],130,90,–
CNC(=O)c1nnc(Nc2ccc(CO)cn2)cc1Nc1ccccc1S(C)(=O)=O [Example 49],560,220,–
CNC(=O)c1nnc(Nc2cc3ccccc3cn2)cc1Nc1ccccc1S(C)(=O)=O [Example 13],20,50,–
[2H]C([2H])([2H])NC(=O)c1nnc(Nc2ccccn2)cc1Nc1cccc(C(=O)NCCOC)c1OC [Example 164],–,–,"IC50 [1, 5]: 300 nM; IC50 [2, 6]: 170 nM"
CNC(=O)c1nnc(Nc2ccc(F)cn2)cc1Nc1cccc(-c2ccn(C)n2)c1OC [Example 55],20,20,–
CNC(=O)c1nnc(Nc2ccccn2)cc1Nc1cccc(-c2nnnn2C)c1OC [Example 145],10,8.44,–
CNC(=O)c1nnc(NC(=O)C2CC2)cc1Nc1cccc(-c2cccnn2)c1OC [Example 78],320,–,–
CNC(=O)c1nnc(Nc2cc(OC)nc(C)n2)cc1Nc1ccccc1S(C)(=O)=O [Example 43],460,70,–
CNC(=O)c1nnc(Nc2ccc(F)cn2)cc1Nc1ccccc1S(C)(=O)=O [Example 6],190,110,–
CNC(=O)c1nnc(Nc2cc(C)n(C)n2)cc1Nc1cccc(-c2n[nH]c(C)n2)c1OC [Example 148],20,10,–
CNC(=O)c1nnc(Nc2cc(C)c(F)cn2)cc1Nc1cccc(-c2nnc(C)o2)c1OC [Example 150],20,10,–
CNC(=O)c1nnc(NC(=O)C2CC2)cc1Nc1cccc(-c2cnn(C)c2)c1OC [Example 63],40,60,–
C#Cc1cccc(Nc2cc(NC(=O)C3CC3)nnc2C(=O)NC)c1OC [Example 139],210,150,–
CNC(=O)c1nnc(Nc2cc(C)c(C)nn2)cc1Nc1ccccc1S(C)(=O)=O [Example 21],80,60,–
[2H]C([2H])([2H])NC(=O)c1nnc(NC(=O)C2CC2)cc1Nc1cccc(-c2cc[nH]n2)c1OC [Example 195],–,–,"IC50 [1, 5]: 10 nM; IC50 [2, 6]: 20 nM"

SMILES,"IC50 [1, 3] [nM]","IC50 [2, 4] [nM]",also measured
CNC(=O)c1nnc(Nc2cc(C)n(C)n2)cc1Nc1cccc(-c2ccn(C)n2)c1OC [Example 93],50,10,–
CCOc1ccnc(Nc2cc(Nc3ccccc3S(C)(=O)=O)c(C(=O)NC)nn2)c1 [Example 37],540,80,–
CNC(=O)c1nnc(Nc2cc(C(C)=O)ccn2)cc1Nc1ccccc1S(C)(=O)=O [Example 33],660,400,–
CNC(=O)c1nnc(Nc2cc(C)ncn2)cc1Nc1cccc(-c2ncn(C)n2)c1OC [Example 109],10,7.13,–
CNC(=O)c1nnc(Nc2cc(C#N)ccn2)cc1Nc1ccccc1S(C)(=O)=O [Example 25],140,80,–
CCc1ccnc(Nc2cc(Nc3ccccc3S(C)(=O)=O)c(C(=O)NC)nn2)c1 [Example 36],110,30,–
CNC(=O)c1nnc(Nc2cc(C)n(C)n2)cc1Nc1cccc(-c2nccs2)c1OC [Example 107],90,140,–
CNC(=O)c1nnc(Nc2cc(COC)ccn2)cc1Nc1cccc(-c2ncn(C)n2)c1OC [Example 135],3.83,1.4,–
CNC(=O)c1nnc(Nc2ccccn2)cc1Nc1cccc(-c2cscn2)c1OC [Example 132],20,20,–
[2H]C([2H])([2H])NC(=O)c1nnc(Nc2ccccn2)cc1Nc1cccc(-c2nnc[nH]2)c1OC [Example 172],–,–,"IC50 [1, 5]: 5.45 nM; IC50 [2, 6]: 6.19 nM"
CNC(=O)c1nnc(Nc2ccccn2)cc1Nc1cccc(-c2ncc(C)s2)c1OC [Example 117],80,30,–
CNC(=O)c1nnc(Nc2cc(C)c(F)cn2)cc1Nc1cccc(-c2ncn(C)n2)c1OC [Example 56],7.01,5.45,–
CNC(=O)c1nnc(NC(=O)C2CC2)cc1Nc1cccc(-c2ccn(C)n2)c1OC [Example 54],40,20,–
CNC(=O)c1nnc(Nc2ccccn2)cc1Nc1cccc(C(=O)NCC(C)(C)O)c1OC [Example 166],270,210,–
CNC(=O)c1nnc(NC(=O)C2CC2)cc1Nc1cccc(-c2ccncn2)c1OC [Example 86],30,–,–
CNC(=O)c1nnc(NC(=O)C2CC2)cc1Nc1cccc(-c2cnn(CC(F)F)c2)c1OC [Example 187],50,–,–
CNC(=O)c1nnc(NC(=O)C2CC2)cc1Nc1cccc(-c2cnccn2)c1OC [Example 75],70,–,–
CNC(=O)c1nnc(Nc2cc(C)n(C)n2)cc1Nc1cccc(-c2ncc(C)s2)c1OC [Example 104],–,40,–
CNC(=O)c1nnc(NC(=O)C2CC2)cc1Nc1cccc(-c2nccc(C)n2)c1OC [Example 82],110,–,–
CNC(=O)c1nnc(NC(=O)C2CC2)cc1Nc1cccc(-c2ccccn2)c1OC [Example 72],130,–,–
